Data: patent publication US11339130B1 (Blade Therapeutics, Inc., priority 2016, dated 2022)
Read-outs that look alike come from different tables or passages of the source.

Tests used:
Assay type in all cases: biochemical
Human Calpain 9/NS1 = target: T1, Human Calpain 9/NS1 (Homo sapiens, UniProt O14815); assay: Calpain inhibition continuous fluorescence (FRET) assay, Human Calpain 9/NS1; conditions: read-out: Human Calpain 9/NS1 IC50
T1 sequence (O14815 1-690): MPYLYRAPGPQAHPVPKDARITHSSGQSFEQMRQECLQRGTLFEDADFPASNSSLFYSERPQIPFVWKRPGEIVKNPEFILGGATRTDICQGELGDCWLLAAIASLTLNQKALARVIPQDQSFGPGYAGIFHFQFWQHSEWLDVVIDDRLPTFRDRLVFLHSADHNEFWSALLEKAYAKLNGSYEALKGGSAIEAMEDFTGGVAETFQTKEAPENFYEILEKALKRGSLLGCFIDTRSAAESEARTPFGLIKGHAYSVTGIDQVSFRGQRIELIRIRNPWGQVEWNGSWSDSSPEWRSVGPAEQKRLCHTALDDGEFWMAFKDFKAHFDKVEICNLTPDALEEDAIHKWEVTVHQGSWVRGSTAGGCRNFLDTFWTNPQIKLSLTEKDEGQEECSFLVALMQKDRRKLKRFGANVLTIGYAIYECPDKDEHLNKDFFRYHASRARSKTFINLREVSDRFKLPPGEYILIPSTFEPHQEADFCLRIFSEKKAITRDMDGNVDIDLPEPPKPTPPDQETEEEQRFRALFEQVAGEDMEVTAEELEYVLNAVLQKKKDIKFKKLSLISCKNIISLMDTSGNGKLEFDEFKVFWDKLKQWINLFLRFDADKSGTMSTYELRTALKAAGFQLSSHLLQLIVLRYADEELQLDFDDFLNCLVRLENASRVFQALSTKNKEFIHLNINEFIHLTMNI
T1 sequence (P04632 1-268 partner): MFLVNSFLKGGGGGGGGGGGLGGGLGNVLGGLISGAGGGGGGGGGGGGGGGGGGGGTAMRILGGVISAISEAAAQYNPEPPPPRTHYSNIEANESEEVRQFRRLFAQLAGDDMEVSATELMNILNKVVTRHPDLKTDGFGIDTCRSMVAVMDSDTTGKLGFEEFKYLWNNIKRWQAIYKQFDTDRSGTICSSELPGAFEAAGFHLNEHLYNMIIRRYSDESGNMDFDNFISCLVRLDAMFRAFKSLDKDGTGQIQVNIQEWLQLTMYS
In short: (§1)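 Continuous FRET read (ex 490/em 520 nm, 10 min) of calpain 1, 2 or 9 cleaving an internally quenched 5-FAM peptide, triggered by substrate with CaCl2 after enzyme–inhibitor incubation at ambient 25 °C, pH 7.5 Tris/NaCl/DTT buffer. IC50 from initial rates (1-5 min) via 4-parameter fit.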

Human Calpain 1/NS1 = target: T2, Human Calpain 1/NS1 (Homo sapiens, UniProt P07384); assay: Calpain inhibition continuous fluorescence (FRET) assay, Human Calpain 1/NS1; conditions: read-out: Human Calpain 1/NS1 IC50
T2 sequence (P07384 1-714): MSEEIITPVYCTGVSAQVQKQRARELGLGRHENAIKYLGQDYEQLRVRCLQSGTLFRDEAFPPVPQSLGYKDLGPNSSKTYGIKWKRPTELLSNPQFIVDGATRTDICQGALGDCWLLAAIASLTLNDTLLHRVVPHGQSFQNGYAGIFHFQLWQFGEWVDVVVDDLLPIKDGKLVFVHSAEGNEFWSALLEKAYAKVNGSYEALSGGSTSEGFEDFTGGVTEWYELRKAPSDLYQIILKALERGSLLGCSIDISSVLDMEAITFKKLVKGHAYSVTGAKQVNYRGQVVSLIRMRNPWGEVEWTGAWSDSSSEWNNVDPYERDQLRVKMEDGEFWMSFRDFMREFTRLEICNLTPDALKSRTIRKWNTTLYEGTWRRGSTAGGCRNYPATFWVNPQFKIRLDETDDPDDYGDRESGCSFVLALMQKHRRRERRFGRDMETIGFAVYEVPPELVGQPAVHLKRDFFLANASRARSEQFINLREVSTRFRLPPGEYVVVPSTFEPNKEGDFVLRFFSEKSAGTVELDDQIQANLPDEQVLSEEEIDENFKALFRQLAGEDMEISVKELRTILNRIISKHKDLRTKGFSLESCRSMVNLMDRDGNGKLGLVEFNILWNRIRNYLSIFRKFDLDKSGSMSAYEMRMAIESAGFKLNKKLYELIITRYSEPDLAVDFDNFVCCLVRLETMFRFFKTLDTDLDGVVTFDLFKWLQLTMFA
T2 sequence (P04632 1-268 partner): T1 sequence (P04632 1-268 partner)
In short: as §1

Human Calpain 2/NS1 = target: T3, Human Calpain 2/NS1 (Homo sapiens, UniProt P17655); assay: Calpain inhibition continuous fluorescence (FRET) assay, Human Calpain 2/NS1; conditions: read-out: Human Calpain 2/NS1 IC50
T3 sequence (P17655 1-700): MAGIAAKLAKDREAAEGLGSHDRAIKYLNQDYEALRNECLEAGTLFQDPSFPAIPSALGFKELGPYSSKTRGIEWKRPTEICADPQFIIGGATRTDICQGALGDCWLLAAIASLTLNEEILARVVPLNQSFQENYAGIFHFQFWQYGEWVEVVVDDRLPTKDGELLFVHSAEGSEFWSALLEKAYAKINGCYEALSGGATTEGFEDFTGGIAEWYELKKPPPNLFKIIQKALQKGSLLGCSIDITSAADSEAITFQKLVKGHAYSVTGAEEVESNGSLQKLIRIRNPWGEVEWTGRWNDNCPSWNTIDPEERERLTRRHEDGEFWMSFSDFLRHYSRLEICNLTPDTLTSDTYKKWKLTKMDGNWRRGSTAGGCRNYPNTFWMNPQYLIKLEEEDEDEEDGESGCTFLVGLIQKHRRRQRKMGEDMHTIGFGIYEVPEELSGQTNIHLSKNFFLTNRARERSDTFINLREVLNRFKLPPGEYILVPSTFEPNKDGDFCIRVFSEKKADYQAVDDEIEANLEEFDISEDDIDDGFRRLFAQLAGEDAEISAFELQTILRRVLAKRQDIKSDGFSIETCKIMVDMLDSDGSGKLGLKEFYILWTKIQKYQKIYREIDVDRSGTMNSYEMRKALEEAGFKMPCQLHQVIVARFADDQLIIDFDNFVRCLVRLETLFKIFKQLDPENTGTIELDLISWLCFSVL
T3 sequence (P04632 1-268 partner): T1 sequence (P04632 1-268 partner)
In short: as §1

Row | IC50 (Human Calpain 9/NS1; Column C) | IC50 (Human Calpain 1/NS1; Column A) | IC50 (Human Calpain 2/NS1; Column B) | IC50 (Human Calpain 9/NS1) | IC50 (Human Calpain 1/NS1) | IC50 (Human Calpain 2/NS1) | SMILES
1 | > 10 µM | > 10 µM | > 10 µM |  |  |  | Cc1cc(C(=O)N[C@@H](Cc2ccccc2)C(=O)C(=O)NC2CC2)n(-c2nc3ccccc3n2C)n1 [Compound 295, (S)—N-(4-(cyclopropylamino)-3,4-dioxo-1-phenylbutan-2-yl)-3-methyl-1-(1-methyl-1H-benzo[d]imidazol-2-yl)-1H-pyrazole-5-carboxamide]
2 | < 3 µM | > 10 µM | 3 to 10 µM |  |  |  | COc1ccc2nc(-n3nc(C)cc3C(=O)N[C@@H](Cc3ccccc3)C(=O)C(N)=O)sc2c1 [Compound 297, (S)—N-(4-amino-3,4-dioxo-1-phenylbutan-2-yl)-1-(6-methoxybenzo[d]thiazol-2-yl)-3-methyl-1H-pyrazole-5-carboxamide]
3 | > 10 µM | > 10 µM | > 10 µM |  |  |  | Cc1cc(C(=O)N[C@@H](Cc2ccccc2)C(=O)C(N)=O)n(-c2nc3c(C)cccc3s2)n1 [Compound 298, (S)—N-(4-amino-3,4-dioxo-1-phenylbutan-2-yl)-3-methyl-1-(4-methylbenzo[d]thiazol-2-yl)-1H-pyrazole-5-carboxamide]
4 | < 3 µM | < 3 µM | < 3 µM |  |  |  | NC(=O)C(=O)[C@H](Cc1ccccc1)NC(=O)c1conc1-c1ccccc1 [Compound 304, (S)—N-(4-amino-3,4-dioxo-1-phenylbutan-2-yl)-3-phenylisoxazole-4-carboxamide]
5 |  |  |  | < 3 µM | < 3 µM | < 3 µM | NC(=O)C(=O)[C@H](Cc1ccccc1)NC(=O)c1cc2ccccc2n1-c1ccccc1 [Compound 307, (S)—N-(4-amino-3,4-dioxo-1-phenylbutan-2-yl)-1-phenyl-1H-indole-2-carboxamide]
6 |  |  |  | < 3 µM | < 3 µM | < 3 µM | CCn1ncc(Cl)c1C(=O)N[C@@H](Cc1ccccc1)C(=O)C(N)=O [Compound 311, (S)—N-(4-amino-3,4-dioxo-1-phenylbutan-2-yl)-4-chloro-1-ethyl-1H-pyrazole-5-carboxamide]
7 |  |  |  | 3 to 10 µM | 3 to 10 µM | 3 to 10 µM | Cc1nc(C(=O)NC(Cc2ccccc2)C(=O)C(N)=O)c(-c2ccccn2)o1 (stereo not drawn) [Compound 314, N-(4-amino-3,4-dioxo-1-phenylbutan-2-yl)-2-methyl-5-(pyridin-2-yl)oxazole-4-carboxamide]
8 |  |  |  | < 3 µM | 3 to 10 µM | 3 to 10 µM | Cn1cc(C(=O)NC(Cc2ccccc2)C(=O)C(N)=O)c(-c2ccc(C(F)(F)F)nc2)n1 (stereo not drawn) [Compound 315, N-(4-amino-3,4-dioxo-1-phenylbutan-2-yl)-1-methyl-3-(6-(trifluoromethyl)pyridin-3-yl)-1H-pyrazole-4-carboxamide]
9 |  |  |  | 3 to 10 µM | > 10 µM | > 10 µM | Cc1cccc(-c2nn(C)cc2C(=O)NC(Cc2ccccc2)C(=O)C(N)=O)n1 (stereo not drawn) [Compound 316, N-(4-amino-3,4-dioxo-1-phenylbutan-2-yl)-1-methyl-3-(6-methylpyridin-2-yl)-1H-pyrazole-4-carboxamide]
10 |  |  |  | < 3 µM | < 3 µM | 3 to 10 µM | Cc1ncc(C(=O)NC(Cc2ccccc2)C(=O)C(N)=O)n1-c1ccccc1 (stereo not drawn) [Compound 318, N-(4-amino-3,4-dioxo-1-phenylbutan-2-yl)-2-methyl-1-phenyl-1H-imidazole-5-carboxamide]
11 |  |  |  | < 3 µM | < 3 µM | < 3 µM | Cc1cn(-c2ccccc2)c(C(=O)N[C@@H](Cc2ccccc2)C(=O)C(N)=O)n1 [Compound 319, (S)—N-(4-amino-3,4-dioxo-1-phenylbutan-2-yl)-4-methyl-1-phenyl-1H-imidazole-2-carboxamide]
12 |  |  |  | 3 to 10 µM | < 3 µM | < 3 µM | NC(=O)C(=O)C(Cc1ccccc1)NC(=O)c1conc1-c1ncccn1 (stereo not drawn) [Compound 324, N-(4-amino-3,4-dioxo-1-phenylbutan-2-yl)-3-(pyrimidin-2-yl)isoxazole-4-carboxamide]
13 |  |  |  | < 3 µM | < 3 µM | < 3 µM | Cc1nc(-c2ccccc2)c(C(=O)NC(Cc2cc(Cl)cc(Cl)c2)C(=O)C(N)=O)o1 (stereo not drawn) [Compound 390, N-(4-amino-1-(3,5-dichlorophenyl)-3,4-dioxobutan-2-yl)-2-methyl-4-phenyloxazole-5-carboxamide]
14 |  |  |  | < 3 µM | < 3 µM | < 3 µM | Cc1nc(-c2ccccc2)c(C(=O)N[C@@H](CC(C)(C)C)C(=O)C(N)=O)o1 [Compound 391, (S)—N-(1-amino-5,5-dimethyl-1,2-dioxohexan-3-yl)-2-methyl-4-phenyloxazole-5-carboxamide]
15 |  |  |  | 3 to 10 µM | > 10 µM | 3 to 10 µM | Cn1cc(C(=O)NC(Cc2ccccc2)C(=O)C(N)=O)c(C(=O)c2ccccc2)n1 (stereo not drawn) [Compound 395, N-(4-amino-3,4-dioxo-1-phenylbutan-2-yl)-3-benzoyl-1-methyl-1H-pyrazole-4-carboxamide]
16 |  |  |  | < 3 µM | < 3 µM | < 3 µM | Cc1cc(C(=O)NC(Cc2ccccc2)C(=O)C(N)=O)n(-c2ccncn2)n1 (stereo not drawn) [Compound 409, N-(4-amino-3,4-dioxo-1-phenylbutan-2-yl)-3-methyl-1-(pyrimidin-4-yl)-1H-pyrazole-5-carboxamide]
17 |  |  |  | 3 to 10 µM | 3 to 10 µM | 3 to 10 µM | NC(=O)C(=O)C(Cc1ccccc1)NC(=O)c1c(C(F)(F)F)cnn1-c1ncccn1 (stereo not drawn) [Compound 410, N-(4-amino-3,4-dioxo-1-phenylbutan-2-yl)-1-(pyrimidin-2-yl)-4-(trifluoromethyl)-1H-pyrazole-5-carboxamide]
18 |  |  |  | < 3 µM | < 3 µM | < 3 µM | Cc1cc(C(=O)NC(Cc2ccccc2)C(=O)C(N)=O)c(-c2nc3ccccc3[nH]2)s1 (stereo not drawn) [Compound 429, N-(4-amino-3,4-dioxo-1-phenylbutan-2-yl)-2-(1H-benzo[d]imidazol-2-yl)-5-methylthiophene-3-carboxamide]
